The results in this text go back to patent publication US20190216089A1, “COMPOUNDED HERBICIDAL COMPOSITION CONTAINING SHUANGZUOCAOTONG AND METHOD OF USING THE SAME” (priority 2016, published 2019).

One assay deals with Descurainia Sophia. Description: Pot-culture greenhouse foliage treatment, fresh weight inhibition (Gowing method). Conditions: foliage spray. The format is in vivo. The procedure: (§1) The above weeds were cultivated by a pot culture method. […] Full and uniform weed seeds were selected, soaked in warm water at 25° C. for 6 hours, and germinated in a 28° C. biochemical incubator (darkness). […] A certain amount of water was added to the enamel pan regularly to keep the soil moist.
(§2) Since these several agents were soluble in acetone, any two TCs were dissolved in acetone, and diluted with an aqueous solution containing 0.1% emulsifier T-80. The dilution was performed as required.
(§3) A ratio of glufosinate ammonium or glyphosate and shuangzuocaotong and amounts thereof in each group depends on the characteristics and toxicity of the two agents, as well as the main application purpose of a corresponding formulation. Glyphosate is a non-selective herbicide and is absorbed by foliage and translocated to various parts of the plant, which is different from the mechanism of action of glufosinate ammonium, i.e., killing roots. […] The control spectrum of Shuangzuocaotong is complementary to that of glyphosate or that of glufosinate ammonium to some extent. […] Based on the pre-tests in this study, the doses of glyphosate, glufosinate ammonium, and Shuangzuocaotong applied alone and in combination were shown in the Table 1 and Table 2, and a total 15 groups were designed, respectively. Water containing the solvent and emulsifying agent same with the above groups but free of the agents was used as a blank control.
(§4) 3 pots with 20 weed seeds per pot were treated in one treatment with […] per treatment, that is, a total of 60 weeds were treated in one treatment.
(§5) The agents were used for only once in the experiment. In the stage of weeds with 2 leaves and 1 core, the weeds were thinned out to maintain 15 weeds per pot and 45 weeds for each treatment, then continued to be cultured until the four true leaves of Descurainia sophia and Capsella bursa-pastoris emerged, and treated.
(§6) The well-cultured weeds were evenly placed on a platform with an area of 0.5 m^2, and a solution of agents was sprayed on the foliage thereof by the 3WP-2000-type walking spray tower at a dosage of 30 kg/ha and at a spray pressure of 0.3 MPa. After all the solution was sprayed, the valve was closed. After 30 seconds, the door of the spray tower was opened, and the nutritional bowl was taken out. Then the valve was opened, and the spray tube was cleaned by spraying 50 ml of water.
(§7) A pot-culture method was employed. For the cultivation of weeds, please refer to the Section 1.1, and “Pesticide guidelines for laboratory bioactivity tests—herbicides”. As to a method for applying agents, please refer to the section 2.3.2, that is, a method for foliage treatment was employed.
(§8) A method for investigating absolute number was employed, wherein whole seedlings of survival weeds were cut off with a blade along the soil surface, and the fresh weight of the weeds was weighed with an analytical balance. For dead weeds, the fresh weight thereof was zero.
(§9) The investigation was performed after 20 days of the treatment for only once.

The next assay relates to Capsella bursa-pastoris. The assay is described as above. The format is in vivo. Conditions: foliage spray. As to the method: as §1, §2, §3, §4, §5, §6, §7, §8, §9
Where [1] appears, read: dose 67.5 g/hm^2, after 20 days (Table 2).
[2] abbreviates: dose 90 g/hm^2, after 20 days (Table 2).
Setting [3] is: dose 112.5 g/hm^2, after 20 days (Table 2).
Where [4] appears, read: dose 1125 g/hm^2, after 20 days.

For the compound `Cc1nn(C)cc1C(=O)Oc1c(C(=O)c2ccc(C(F)(F)F)cc2S(C)(=O)=O)c(C)nn1C` [Shuangzuocaotong], the “actual fresh weight inhibition rate” value with Descurainia Sophia (dose 15 g/hm^2, after 20 days) came out at 54.2%; in the assay on Descurainia Sophia (dose 30 g/hm^2, after 20 days), 76.2%; in the assay with Descurainia Sophia (dose 45 g/hm^2, after 20 days), 90.2%; with Descurainia Sophia (setting [1]), 53.3%; in the assay with Descurainia Sophia (setting [2]) it was 74.3%; in the assay with Descurainia Sophia (setting [3]), 86.2%. The “actual fresh weight inhibition rate” value was 53.2% in the assay with Capsella bursa-pastoris (dose 15 g/hm^2, after 20 days); 75.2% in the assay on Capsella bursa-pastoris (dose 30 g/hm^2, after 20 days); 91.3% in the assay with Capsella bursa-pastoris (dose 45 g/hm^2, after 20 days); 54.1% in the assay with Capsella bursa-pastoris (setting [1]); 72.4% in the assay with Capsella bursa-pastoris (setting [2]); 93.5% in the assay on Capsella bursa-pastoris (setting [3]).
With `O=C(O)CNCP(=O)(O)O` [glyphosate, N-(phosphonomethyl)glycine], the “actual fresh weight inhibition rate” value in the assay with Descurainia Sophia (dose 675 g/hm^2, after 20 days) worked out at 55.2%; in the assay with Descurainia Sophia (dose 900 g/hm^2, after 20 days), 73.1%; with Descurainia Sophia (setting [4]), 91.4%; in the assay on Capsella bursa-pastoris (dose 675 g/hm^2, after 20 days), 53.2%; in the assay on Capsella bursa-pastoris (dose 900 g/hm^2, after 20 days), 74.6%; in the assay on Capsella bursa-pastoris (setting [4]), 92.4%.
Consider `CP(=O)(O)CCC(N)C(=O)O.N` (racemic) [Glufosinate ammonium, ammonium-DL-homoalanin-4-yl(methyl)phosphinate], for which the “actual fresh weight inhibition rate” value with Descurainia Sophia (dose 300 g/hm^2, after 20 days) turned out to be 49.8%; with Descurainia Sophia (dose 450 g/hm^2, after 20 days), 71.6%; with Descurainia Sophia (dose 600 g/hm^2, after 20 days), 92.6%; in the assay on Capsella bursa-pastoris (dose 300 g/hm^2, after 20 days), 48.2%; with Capsella bursa-pastoris (dose 450 g/hm^2, after 20 days), 73.2%; with Capsella bursa-pastoris (dose 600 g/hm^2, after 20 days) it was 93.5%.
